Reference: patent US11760717B2, “Resin composition and fluidity improvement method” (Osaka Gas Chemicals Co., Ltd., priority 2020, dated 2023)

How the values were obtained:
[1] = 5% mass reduction temperature (TG-DTA); format: physicochemical; settings: nitrogen atmosphere, 50 to 400° C., heating rate 10° C./min
Experimental: (5% Mass Reduction Temperature)
The temperature, at which the mass of the sample is reduced by 5% by mass, was measured using a Thermogravimeter-Differential Thermal Analyzer (TG-DTA) (manufactured by PerkinElmer, Inc., “TGA-4000”) in a nitrogen atmosphere, under the condition of a measurement temperature range of 50 to 400° C. with a heating rate of 10° C./min.

[2] = Visual confirmation of extruded thread shaped sample (compatibility of resin and additive); format: physicochemical; settings: thread shaped sample extruded from the resin composition, visually confirmed
Experimental: When a thread shaped sample obtained by extruding the resin composition was visually confirmed, the resin and the additive were compatible with each other without becoming cloudy in each of samples.
For each of Examples, the PA66 as a resin and AAD-FL as an additive were kneaded at a ratio shown in Table 3 to prepare a resin composition. Kneading was performed using a twin-screw extruder (manufactured by Parker Corporation, “HK25D”, L/D=41, screw diameter: 25 mm) under the conditions of a temperature of 270° C., a screw rotation speed of 150 rpm, and a discharge amount of 6 kg/hour. When a thread shaped sample obtained by extruding the resin composition was visually confirmed, the resin and the additive were compatible with each other without becoming cloudy in each of samples in Examples 4 to 6, as in Example 3.

Structure (SMILES): CN(C)C(=O)CCC1(CCC(=O)N(C)C)c2ccccc2-c2ccccc21 [DMAA-FL, 9,9-bis[2-(N,N-dimethylcarbamoyl)ethyl]fluorene]
- 5% mass reduction temperature [1]: 318 °C

Structure (SMILES): NC(=O)CCC1(CCC(N)=O)c2ccccc2-c2ccccc21 [AAD-FL, 9,9-bis(2-carbamoylethyl)fluorene]
- compatibility of resin and additive [2]: compatible with the resin
- 5% mass reduction temperature [1]: 320 °C

Structure (SMILES): CCN(CC)C(=O)CCC1(CCC(=O)N(CC)CC)c2ccccc2-c2ccccc21 [DEAA-FL, 9,9-bis[2-(N,N-diethylcarbamoyl)ethyl]fluorene]
- 5% mass reduction temperature [1]: 294 °C

Structure (SMILES): CC(C)NC(=O)CCC1(CCC(=O)NC(C)C)c2ccccc2-c2ccccc21 [NIPAM-FL, 9,9-bis[2-(N-isopropylcarbamoyl)ethyl]fluorene]
- 5% mass reduction temperature [1]: 257 °C
